Among the data in paper PMC5065787 (Bioorganic & medicinal chemistry, 2016) are kcat values, retold here.

Assay [1] deals with T1, h15-LOX-1 F414W (Homo sapiens, UniProt P16050, F414W).
T1 sequence (P16050 1-662 F414W): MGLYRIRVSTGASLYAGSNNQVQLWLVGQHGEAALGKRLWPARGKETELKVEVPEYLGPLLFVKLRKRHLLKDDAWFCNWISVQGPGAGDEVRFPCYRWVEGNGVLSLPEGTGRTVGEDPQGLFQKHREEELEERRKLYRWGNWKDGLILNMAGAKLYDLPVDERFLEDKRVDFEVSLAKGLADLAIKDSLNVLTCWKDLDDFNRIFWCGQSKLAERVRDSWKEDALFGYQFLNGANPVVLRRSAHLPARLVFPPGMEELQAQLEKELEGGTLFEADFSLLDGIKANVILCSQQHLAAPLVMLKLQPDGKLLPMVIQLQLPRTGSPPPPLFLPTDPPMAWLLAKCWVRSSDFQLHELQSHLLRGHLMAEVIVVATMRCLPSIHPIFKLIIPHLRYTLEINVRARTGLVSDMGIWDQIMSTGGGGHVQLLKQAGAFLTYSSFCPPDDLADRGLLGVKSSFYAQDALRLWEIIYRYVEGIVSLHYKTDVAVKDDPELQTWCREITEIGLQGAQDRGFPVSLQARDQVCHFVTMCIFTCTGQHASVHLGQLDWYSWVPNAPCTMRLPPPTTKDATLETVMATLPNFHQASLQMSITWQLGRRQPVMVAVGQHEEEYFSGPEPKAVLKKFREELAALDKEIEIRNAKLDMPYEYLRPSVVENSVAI
The assay is described as follows: Steady-state substrate kinetics, F414W. It counts as biochemical. As to conditions: error in parentheses, no unit in table (sec^−1).

The target of assay [2] is T2, h15-LOX-1 L407A (Homo sapiens, UniProt P16050, L407A).
T2 sequence (P16050 1-662 L407A): T1 sequence (P16050 1-662 F414W) with L407A, W414F
The assay is described as follows: Steady-state substrate kinetics, L407A. In kind it is biochemical. As to conditions: error in parentheses, no unit in table (sec^−1).

Substitutions are numbered along the chain they refer to.

On to `CCCCC/C=C\C/C=C\C/C=C\C/C=C\CCCC(=O)O` [AA, arachidonic acid], for which the values for the kcat in assay [1] and in assay [2] were 2.8 (0.08) and 2.5 (0.2), respectively.
